Experimental data as given in ChEMBL document CHEMBL5338791, “Discovery of Novel 1,3-Diphenylpyrazine Derivatives as Potent S-Phase Kinase-Associated Protein 2 (Skp2) Inhibitors for the Treatment of Cancer” (J Med Chem, 2023).
Calls of active or inactive are those of the source. The rule behind the calls is not given here.

How the values were obtained:
[1] = system: MGC-803; assay: Induction of cell cycle arrest in human MGC-803 cells assessed as accumulation of cells at G2 phase at 10 uM incubated for 6 hrs by flow cytometry (reference value: 20.64 %); format: functional
[2] = system: PC-3; assay: Antitumor activity against human PC-3 cells xenografted in NOD-SCID mouse model assessed as increase in apoptosis in tumor tissue at 10 to 50 mg/kg, IG administered once every 2 days for 21 days by TUNEL staining based analysis; format: functional, organism-based; conditions: dose 10-50 mg/kg, time 21.0 day
[3] = system: MGC-803; assay: Induction of apoptosis in human MGC-803 cells assessed as necrotic cells at 2.5 uM incubated for 48 hrs by annexin V-FITC/PI staining based flow cytometry (reference value: 0.89 %); format: functional
[4] = system: MGC-803; assay: Inhibition of colony formation in human MGC-803 cells at 0.5 to 2 uM incubated for 10 days by crystal violet staining based microscopy; format: functional, cell-based; conditions: dose 0.5-2 µM, time 10.0 day
[5] = system: PC-3; assay: Induction of cell cycle arrest in human PC-3 cells assessed as accumulation of cells at G1 phase at 10 uM incubated for 12 hrs by flow cytometry (reference value: 56.81 %); format: functional
[6] = system: PC-3; assay: Antitumor activity against human PC-3 cells xenografted in NOD-SCID mouse model assessed as p21 accumulation at 10 to 50 mg/kg, IG administered once every 2 days for 21 days by Western blot analysis; format: functional, organism-based; conditions: dose 10-50 mg/kg, time 21.0 day
[7] = system: PC-9; assay: Antitumor activity against human PC-9 cells overexpressing Skp2 assessed as cell growth inhibition incubated for 72 hrs by MTT assay; format: functional, cell-based; conditions: PC-9, 72 h
[8] = system: MGC-803; assay: Induction of cell cycle arrest in human MGC-803 cells assessed as accumulation of cells at S phase at 10 uM incubated for 36 hrs by flow cytometry (reference value: 20.41 %); format: functional
[9] = system: MGC-803; assay: Inhibition of cell migration in human MGC-803 cells incubated for 48 hrs by wound healing assay; format: functional, cell-based; conditions: dose <= 2.0 µM
[10] = system: MGC-803; assay: Induction of cell cycle arrest in human MGC-803 cells assessed as accumulation of cells at S phase at 10 uM incubated for 6 hrs by flow cytometry (reference value: 20.41 %); format: functional
[11] = system: MGC-803; assay: Antitumor activity against human MGC-803 cells xenografted in NOD-SCID mouse model assessed as increase in apoptosis in tumor tissue at 10 to 50 mg/kg, IG administered once every 2 days for 21 days by TUNEL staining based analysis; format: functional, organism-based; conditions: dose 10-50 mg/kg, time 21.0 day
[12] = AUC (infinity) in plasma of NOD-SCID mouse model xenografted with human PC-3 cells at 25 mg/kg, IG measured upto 48 hrs by LC-MS/MS analysis; format: ADME, organism-based; parameters: time < 48 hrs, dose 25 mg/kg, route ig; conditions: po
[13] = system: A2780; assay: Antitumor activity against human A2780 cells with low Skp2 expression assessed as cell growth inhibition incubated for 72 hrs by MTT assay; format: functional, cell-based; conditions: A2780, 72 h
[14] = Toxicity in NOD-SCID mouse model xenografted with human PC-3 cells assessed as change in heart histology at 10 to 50 mg/kg, IG administered once every 2 days for 21 days by H and E staining based analysis; format: organism-based; conditions: in vivo, po, 504 h, dose 10-50 mg/kg, time 21 day
[15] = system: MGC-803; assay: Induction of apoptosis in human MGC-803 cells assessed as late apoptotic cells at 10 uM incubated for 48 hrs by annexin V-FITC/PI staining based flow cytometry (reference value: 0.95 %); format: functional
[16] = Toxicity in mouse assessed as decrease in platelet level at 10 to 50 mg/kg; format: organism-based; conditions: dose 10-50 mg/kg
[17] = system: MGC-803; assay: Antitumor activity against human MGC-803 cells xenografted in NOD-SCID mouse model assessed as downregulation of Skp2 expression at 10 to 50 mg/kg, IG administered once every 2 days for 21 days by Western blot analysis; format: functional, organism-based; conditions: dose 10-50 mg/kg, time 21.0 day
[18] = system: PC-3; assay: Induction of cell cycle arrest in human PC-3 cells assessed as accumulation of cells at G2 phase at 2.5 uM incubated for 48 hrs by flow cytometry (reference value: 22.59 %); format: functional
[19] = Toxicity in NOD-SCID mouse model xenografted with human PC-3 cells assessed as change in spleen histology at 10 to 50 mg/kg, IG administered once every 2 days for 21 days by H and E staining based analysis; format: organism-based; conditions: in vivo, po, 504 h, dose 10-50 mg/kg, time 21 day
[20] = system: MGC-803; assay: Induction of apoptosis in human MGC-803 cells assessed as nuclear condensation incubated for 48 hrs; format: functional, cell-based; conditions: dose <= 10.0 µM
[21] = system: PC-3; assay: Induction of apoptosis in human PC-3 cells assessed as nuclear condensation incubated for 48 hrs; format: functional, cell-based; conditions: dose <= 10.0 µM
[22] = system: MGC-803; assay: Induction of apoptosis in human MGC-803 cells assessed as early apoptotic cells at 10 uM incubated for 48 hrs by annexin V-FITC/PI staining based flow cytometry (reference value: 0.21 %); format: functional
[23] = system: PC-3; assay: Induction of cell cycle arrest in human PC-3 cells assessed as accumulation of cells at G1 phase at 10 uM incubated for 48 hrs by flow cytometry (reference value: 57.39 %); format: functional
[24] = system: PC-3; assay: Induction of cell cycle arrest in human PC-3 cells assessed as accumulation of cells at G1 phase at 10 uM incubated for 36 hrs by flow cytometry (reference value: 56.81 %); format: functional
[25] = system: MGC-803; assay: Induction of cell cycle arrest in human MGC-803 cells assessed as accumulation of cells at G2 phase at 10 uM incubated for 48 hrs by flow cytometry (reference value: 20.64 %); format: functional
[26] = system: PC-3; assay: Induction of apoptosis in human PC-3 cells assessed as viable cells at 10 uM incubated for 48 hrs by annexin V-FITC/PI staining based flow cytometry (reference value: 98.6 %); format: functional; conditions: read-out: Activity
[27] = Apparent volume of distribution in tumor of NOD-SCID mouse model xenografted with human PC-3 cells at 25 mg/kg, IG measured upto 48 hrs by LC-MS/MS analysis; format: ADME, organism-based, Neoplasm; conditions: in vivo, po
[28] = system: PC-3; assay: Induction of cell cycle arrest in human PC-3 cells assessed as accumulation of cells at G2 phase at 10 uM incubated for 48 hrs by flow cytometry (reference value: 19.34 %); format: functional
[29] = Toxicity in NOD-SCID mouse model xenografted with human MGC-803 cells assessed as change in heart histology at 10 to 50 mg/kg, IG administered once every 2 days for 21 days by H and E staining based analysis; format: organism-based; conditions: in vivo, po, 504 h, dose 10-50 mg/kg, time 21 day
[30] = system: PC-3; assay: Antitumor activity against human PC-3 cells xenografted in NOD-SCID mouse model assessed as downregulation of ki67 level at 10 to 50 mg/kg, IG administered once every 2 days for 21 days by Western blot analysis; format: functional, organism-based; conditions: dose 10-50 mg/kg, time 21.0 day
[31] = system: PC-3; assay: Induction of cell cycle arrest in human PC-3 cells assessed as accumulation of cells at S phase at 10 uM incubated for 36 hrs by flow cytometry (reference value: 19.7 %); format: functional
[32] = system: NCI-N87; assay: Antitumor activity against human NCI-N87 cells with low Skp2 expression assessed as cell growth inhibition incubated for 72 hrs by MTT assay; format: functional, cell-based; conditions: NCI-N87, 72 h
[33] = Toxicity in NOD-SCID mouse model xenografted with human PC-3 cells assessed as change in liver histology at 10 to 50 mg/kg, IG administered once every 2 days for 21 days by H and E staining based analysis; format: organism-based; conditions: in vivo, po, 504 h, dose 10-50 mg/kg, time 21 day

IC50 [7]: 8.1 µM
AUC(0-inf) [12]: 3550 ng·h/mL
IC50 [13]: 14.3 µM
Vz [27]: 170.8 L/kg
SMILES: O=C(CCl)NC1CCN(c2cnc(-c3ccccc3)c(-c3ccccc3)n2)CC1
Activity [1]: 17.82%
Activity [2]: Active
Activity [3]: 1.02%
inhibition [4]: Active
Activity [5]: 44.95%
Activity [6]: Active
Activity [8]: 42.29%
inhibition [9]: Dose-Dependent Effect
Activity [10]: 29.93%
Activity [11]: Active
Activity [14]: Non-Toxic
Activity [15]: 24.9%
Activity [16]: Toxic
Activity [17]: Active
Activity [18]: 18.47%
Activity [19]: Non-Toxic
Activity [20]: Dose-Dependent Effect
Activity [21]: Dose-Dependent Effect
Activity [22]: 3.41%
Activity [23]: 39.51%
Activity [24]: 33.46%
Activity [25]: 21.86%
viability at 10 µM [26]: 58.6%
Activity [28]: 16.14%
Activity [29]: Non-Toxic
Activity [30]: Active
Activity [31]: 45.23%
IC50 [32]: 15.5 µM
Activity [33]: Non-Toxic
